Laboratory results taken from patent US20120083522A1, “MODULATION OF INFLAMMATORY RESPONSES BY FACTOR XI” (Isis Pharmaceuitcals, inc., priority 2009, published 2012).
In the oligonucleotide strings, read from the 5' end, every base follows the letter of its sugar. An asterisk marks phosphorothioate; unmarked linkages are phosphodiester. Other units and linkages are bracketed, terminal groups are in braces. A string of capitals states the bases alone. e = 2'-O-(2-methoxyethyl) (MOE); [5mC] = 5-methylcytosine; d = 2'-deoxy (DNA)

Tests used:
Format in all cases: cell-based
human Factor XI mRNA [1] = test: Antisense inhibition in HepG2 cells by microwalk gapmers, 75 nM, lipofectin (Example 3); conditions: HepG2 cells, 75 nM
Summary of the method: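 HepG2 cells (10,000 per well) were transfected with 75 nM gapmer using lipofectin and treated for about 24 h. Factor XI mRNA was quantified by real-time PCR, normalized to RiboGreen total RNA and expressed as percent inhibition versus untreated controls.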

human Factor XI mRNA [2] = test: Dose-dependent inhibition in HepG2 cells, lipofectin (Example 4); conditions: 16 hours
Experimental: (§1) Cells were plated at a density of 10,000 cells per well and transfected using lipofectin reagent with 9.375 nM, 18.75 nM, 37.5 nM and 75 nM concentrations of antisense oligonucleotide, as specified in Table 9. After a treatment period of approximately 16 hours, RNA was isolated from the cells and Factor XI mRNA levels were measured by quantitative real-time PCR. Human Factor XI primer probe set RTS 2966 was used to measure mRNA levels. Factor XI mRNA levels were adjusted according to total RNA content, as measured by RIBOGREEN®. Results are presented as percent inhibition of Factor XI, relative to untreated control cells.

human Factor XI mRNA [3] = test: Dose-dependent inhibition in HepG2 cells, electroporation (Example 4); conditions: 16 hours
Experimental: as §1, with “The gapmers were also transfected via electroporation and their dose dependent inhibition of human Factor XI mRNA was measured. Cells” for “Cells”, “20,000” for “10,000”, “via electroporation” for “using lipofectin reagent”, “0.7 μM, 2.2 μM, 6.7 μM,” for “9.375 nM, 18.75 nM, 37.5 nM”, “20 μM” for “75 nM”, “10.” for “9.”

[4] = oligonucleotides targeted to nucleobases 1018 to 1042 of SEQ ID NO: 1
[5] = oligonucleotides targeted to nucleobases 1275 to 1318 of SEQ ID NO: 1

Row | Substance | % inhibition of human Factor XI mRNA levels (human Factor XI mRNA [1]; [4]) | percent inhibition of Factor XI mRNA, relative to untreated control cells (human Factor XI mRNA [2]; 9.375 nM) | percent inhibition of Factor XI mRNA, relative to untreated control cells (human Factor XI mRNA [2]; 18.75 nM) | percent inhibition of Factor XI mRNA, relative to untreated control cells (human Factor XI mRNA [2]; 37.5 nM) | percent inhibition of Factor XI mRNA, relative to untreated control cells (human Factor XI mRNA [2]; 75 nM) | percent inhibition of Factor XI mRNA, relative to untreated control cells (human Factor XI mRNA [3]; 0.7 μM) | percent inhibition of Factor XI mRNA, relative to untreated control cells (human Factor XI mRNA [3]; 2.2 μM) | percent inhibition of Factor XI mRNA, relative to untreated control cells (human Factor XI mRNA [3]; 6.7 μM) | percent inhibition of Factor XI mRNA, relative to untreated control cells (human Factor XI mRNA [3]; 20 μM) | % inhibition of human Factor XI mRNA levels (human Factor XI mRNA [1]; oligonucleotides targeted to nucleobases 1062 to 1091 of SEQ ID NO: 1) | % inhibition of human Factor XI mRNA levels (human Factor XI mRNA [1]; [5])
1 | 413474 (antisense eA*eG*e[5mC]*eA*eA*d[5mC]*d[5mC]*dG*dG*dG*dA*dT*dG*dA*dT*eG*eA*eG*eT*eG) [compound 413474] | 93% | 29% | 44% | 57% | 67% | 0% | 5% | 52% | 81% | – | –
2 | 416842 (antisense eT*eG*eA*eG*eA*dT*dT*d[5mC]*dT*dT*dT*dG*dG*dG*d[5mC]*e[5mC]*eA*eT*eT*e[5mC]) [compound 416842] | – | 18% | 33% | 62% | 71% | 0% | 10% | 66% | 92% | 94% | –
3 | 416908 (antisense eG*e[5mC]*eA*dA*d[5mC]*d[5mC]*dG*dG*dG*dA*dT*dG*dA*dT*dG*dA*dG*eT*eG*e[5mC]) [compound 416908] | 98% | 36% | 57% | 67% | 76% | 7% | 58% | 74% | 89% | – | –
4 | 416922 (antisense eG*e[5mC]*eA*d[5mC]*dA*dG*dT*dT*dT*d[5mC]*dT*dG*dG*d[5mC]*dA*dG*dG*e[5mC]*e[5mC]*eT) [compound 416922] | – | 14% | 25% | 49% | 75% | 35% | 51% | 77% | 91% | – | 94%
5 | 416923 (antisense eT*eG*e[5mC]*dA*d[5mC]*dA*dG*dT*dT*dT*d[5mC]*dT*dG*dG*d[5mC]*dA*dG*eG*e[5mC]*e[5mC]) [compound 416923] | – | 36% | 47% | 60% | 67% | 15% | 30% | 60% | 90% | – | 96%
6 | 416924 (antisense eG*eT*eG*d[5mC]*dA*d[5mC]*dA*dG*dT*dT*dT*d[5mC]*dT*dG*dG*d[5mC]*dA*eG*eG*e[5mC]) [compound 416924] | – | 25% | 38% | 56% | 59% | 22% | 40% | 63% | 70% | – | 97%
7 | 416926 (antisense eT*eG*eG*dT*dG*d[5mC]*dA*d[5mC]*dA*dG*dT*dT*dT*d[5mC]*dT*dG*dG*e[5mC]*eA*eG) [compound 416926] | – | 31% | 43% | 63% | 82% | 47% | 71% | 91% | 94% | – | 93%
8 | 416931 (antisense eG*eG*e[5mC]*dA*dT*dT*dG*dG*dT*dG*d[5mC]*dA*d[5mC]*dA*dG*dT*dT*eT*e[5mC]*eT) [compound 416931] | – | 44% | 39% | 57% | 71% | 7% | 24% | 60% | 82% | – | 96%
9 | 416941 (antisense eG*eG*e[5mC]*dA*dG*d[5mC]*dG*dG*dA*d[5mC]*dG*dG*d[5mC]*dA*dT*dT*dG*eG*eT*eG) [compound 416941] | – | 33% | 54% | 63% | 78% | 16% | 38% | 79% | 89% | – | 95%
10 | 417012 (antisense eG*eG*dA*d[5mC]*dG*dG*d[5mC]*dA*dT*dT*dG*dG*dT*dG*d[5mC]*eA*e[5mC]*eA*eG*eT) [compound 417012] | – | – | – | – | – | – | – | – | – | – | 72%
11 | 417013 (antisense e[5mC]*eG*dG*dA*d[5mC]*dG*dG*d[5mC]*dA*dT*dT*dG*dG*dT*dG*e[5mC]*eA*e[5mC]*eA*eG) [compound 417013] | – | – | – | – | – | – | – | – | – | – | 86%
12 | 417014 (antisense eG*e[5mC]*dG*dG*dA*d[5mC]*dG*dG*d[5mC]*dA*dT*dT*dG*dG*dT*eG*e[5mC]*eA*e[5mC]*eA) [compound 417014] | – | – | – | – | – | – | – | – | – | – | 87%
13 | 417015 (antisense eA*eG*d[5mC]*dG*dG*dA*d[5mC]*dG*dG*d[5mC]*dA*dT*dT*dG*dG*eT*eG*e[5mC]*eA*e[5mC]) [compound 417015] | – | – | – | – | – | – | – | – | – | – | 87%
14 | 417016 (antisense e[5mC]*eA*dG*d[5mC]*dG*dG*dA*d[5mC]*dG*dG*d[5mC]*dA*dT*dT*dG*eG*eT*eG*e[5mC]*eA) [compound 417016] | – | – | – | – | – | – | – | – | – | – | 85%
15 | 417017 (antisense eG*e[5mC]*dA*dG*d[5mC]*dG*dG*dA*d[5mC]*dG*dG*d[5mC]*dA*dT*dT*eG*eG*eT*eG*e[5mC]) [compound 417017] | – | – | – | – | – | – | – | – | – | – | 82%
16 | 417018 (antisense eG*eG*d[5mC]*dA*dG*d[5mC]*dG*dG*dA*d[5mC]*dG*dG*d[5mC]*dA*dT*eT*eG*eG*eT*eG) [compound 417018] | – | – | – | – | – | – | – | – | – | – | 82%
17 | 417019 (antisense eT*eG*dG*d[5mC]*dA*dG*d[5mC]*dG*dG*dA*d[5mC]*dG*dG*d[5mC]*dA*eT*eT*eG*eG*eT) [compound 417019] | – | – | – | – | – | – | – | – | – | – | 84%
18 | 417020 (antisense e[5mC]*eT*dG*dG*d[5mC]*dA*dG*d[5mC]*dG*dG*dA*d[5mC]*dG*dG*d[5mC]*eA*eT*eT*eG*eG) [compound 417020] | – | – | – | – | – | – | – | – | – | – | 84%
19 | 417021 (antisense eA*e[5mC]*dT*dG*dG*d[5mC]*dA*dG*d[5mC]*dG*dG*dA*d[5mC]*dG*dG*e[5mC]*eA*eT*eT*eG) [compound 417021] | – | – | – | – | – | – | – | – | – | – | 74%
